This note sets out measurements from PMC3961306, “Comparison of the Cancer Gene Targeting and Biochemical Selectivities of All Targeted Kinase Inhibitors Approved for Clinical Use” (PLoS ONE, 2014).

Common to all, as to assay: Kinase profiling in a biochemical assay panel (mobility shift assays and ELISA), %-inhibition at 1 μM; selectivity entropy
In test [1] the target is T1, panel of more than 300 wild-type and mutant kinases (313 kinase panel) (Homo sapiens, UniProt P54753).
T1 sequence (P54753 34-998): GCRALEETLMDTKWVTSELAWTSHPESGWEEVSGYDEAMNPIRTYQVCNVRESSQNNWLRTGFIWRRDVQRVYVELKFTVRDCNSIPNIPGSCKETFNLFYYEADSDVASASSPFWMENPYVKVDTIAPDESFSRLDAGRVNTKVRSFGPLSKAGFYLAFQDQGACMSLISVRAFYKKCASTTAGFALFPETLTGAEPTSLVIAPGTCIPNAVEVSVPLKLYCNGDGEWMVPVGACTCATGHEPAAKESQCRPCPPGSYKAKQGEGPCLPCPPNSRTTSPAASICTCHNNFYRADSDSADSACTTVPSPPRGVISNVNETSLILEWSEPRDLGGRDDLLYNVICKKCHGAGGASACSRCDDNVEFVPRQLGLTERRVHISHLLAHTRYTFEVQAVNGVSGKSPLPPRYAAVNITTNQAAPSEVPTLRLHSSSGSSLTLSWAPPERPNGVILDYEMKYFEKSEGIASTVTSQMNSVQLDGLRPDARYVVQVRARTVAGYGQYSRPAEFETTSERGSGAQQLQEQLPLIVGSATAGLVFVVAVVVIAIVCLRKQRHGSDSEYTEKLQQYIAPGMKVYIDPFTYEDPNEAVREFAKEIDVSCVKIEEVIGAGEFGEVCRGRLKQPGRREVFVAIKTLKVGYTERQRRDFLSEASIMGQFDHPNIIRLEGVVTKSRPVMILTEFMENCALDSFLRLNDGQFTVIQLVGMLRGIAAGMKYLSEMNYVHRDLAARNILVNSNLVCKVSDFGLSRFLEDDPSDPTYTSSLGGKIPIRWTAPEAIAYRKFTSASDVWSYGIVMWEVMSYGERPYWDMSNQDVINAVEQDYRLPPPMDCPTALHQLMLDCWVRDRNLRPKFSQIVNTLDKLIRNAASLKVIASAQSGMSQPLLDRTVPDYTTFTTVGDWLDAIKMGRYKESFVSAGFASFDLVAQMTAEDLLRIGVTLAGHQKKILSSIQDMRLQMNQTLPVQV

Test [2] concerns the target panel of more than 300 wild-type and mutant kinases (313 kinase panel) (Homo sapiens, UniProt Q96SB4).
Test [3] addresses T2, panel of more than 300 wild-type and mutant kinases (313 kinase panel) (Homo sapiens, UniProt Q14164).
T2 sequence (Q14164 1-716): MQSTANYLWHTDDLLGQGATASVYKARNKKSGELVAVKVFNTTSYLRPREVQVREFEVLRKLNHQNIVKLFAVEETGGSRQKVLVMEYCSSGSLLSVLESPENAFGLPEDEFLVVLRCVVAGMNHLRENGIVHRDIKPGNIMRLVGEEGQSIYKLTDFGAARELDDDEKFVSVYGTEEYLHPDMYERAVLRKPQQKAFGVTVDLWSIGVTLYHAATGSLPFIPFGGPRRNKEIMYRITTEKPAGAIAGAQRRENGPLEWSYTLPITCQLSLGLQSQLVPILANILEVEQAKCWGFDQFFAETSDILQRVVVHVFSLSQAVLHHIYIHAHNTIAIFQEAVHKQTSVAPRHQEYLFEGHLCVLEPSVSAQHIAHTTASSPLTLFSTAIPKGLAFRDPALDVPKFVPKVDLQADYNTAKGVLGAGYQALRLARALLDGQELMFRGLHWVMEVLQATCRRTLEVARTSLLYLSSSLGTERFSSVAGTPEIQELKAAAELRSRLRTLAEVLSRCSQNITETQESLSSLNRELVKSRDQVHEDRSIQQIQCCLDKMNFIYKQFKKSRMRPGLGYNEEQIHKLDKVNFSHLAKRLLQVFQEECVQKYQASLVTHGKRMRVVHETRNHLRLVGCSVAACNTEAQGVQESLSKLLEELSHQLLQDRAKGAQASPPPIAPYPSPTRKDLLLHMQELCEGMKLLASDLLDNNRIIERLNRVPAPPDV

Test [4] concerns the target panel of more than 300 wild-type and mutant kinases (313 kinase panel) (Homo sapiens, UniProt Q9H0K1).
Test [5] concerns the target panel of more than 300 wild-type and mutant kinases (313 kinase panel) (Homo sapiens, UniProt Q8N568).
For test [6], the target named is panel of more than 300 wild-type and mutant kinases (313 kinase panel) (Homo sapiens, UniProt Q9P289).
The target in test [7] is panel of more than 300 wild-type and mutant kinases (313 kinase panel) (Homo sapiens, UniProt P29376).
Test [8] deals with panel of more than 300 wild-type and mutant kinases (313 kinase panel) (Homo sapiens, UniProt P07949, Y791F).
Setting [9] is: kinase DCAMKL2, compound at 1 μM.

Sequence of panel of more than 300 wild-type and mutant kinases (313 kinase panel) (Homo sapiens, UniProt Q9P289) (Q9P289 whole entry, change not shown): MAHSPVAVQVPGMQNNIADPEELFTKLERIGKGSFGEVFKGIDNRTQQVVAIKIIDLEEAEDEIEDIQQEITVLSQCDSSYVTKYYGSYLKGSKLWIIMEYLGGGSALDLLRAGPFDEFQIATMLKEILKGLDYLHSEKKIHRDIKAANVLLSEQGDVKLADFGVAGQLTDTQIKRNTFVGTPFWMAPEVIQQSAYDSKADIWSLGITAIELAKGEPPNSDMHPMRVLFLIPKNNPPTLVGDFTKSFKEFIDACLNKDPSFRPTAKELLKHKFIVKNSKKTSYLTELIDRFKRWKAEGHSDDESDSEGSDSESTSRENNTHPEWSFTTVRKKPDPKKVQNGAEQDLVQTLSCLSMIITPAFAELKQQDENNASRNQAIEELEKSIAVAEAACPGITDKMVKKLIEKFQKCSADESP
Sequence of panel of more than 300 wild-type and mutant kinases (313 kinase panel) (Homo sapiens, UniProt Q96SB4) (Q96SB4 whole entry, change not shown): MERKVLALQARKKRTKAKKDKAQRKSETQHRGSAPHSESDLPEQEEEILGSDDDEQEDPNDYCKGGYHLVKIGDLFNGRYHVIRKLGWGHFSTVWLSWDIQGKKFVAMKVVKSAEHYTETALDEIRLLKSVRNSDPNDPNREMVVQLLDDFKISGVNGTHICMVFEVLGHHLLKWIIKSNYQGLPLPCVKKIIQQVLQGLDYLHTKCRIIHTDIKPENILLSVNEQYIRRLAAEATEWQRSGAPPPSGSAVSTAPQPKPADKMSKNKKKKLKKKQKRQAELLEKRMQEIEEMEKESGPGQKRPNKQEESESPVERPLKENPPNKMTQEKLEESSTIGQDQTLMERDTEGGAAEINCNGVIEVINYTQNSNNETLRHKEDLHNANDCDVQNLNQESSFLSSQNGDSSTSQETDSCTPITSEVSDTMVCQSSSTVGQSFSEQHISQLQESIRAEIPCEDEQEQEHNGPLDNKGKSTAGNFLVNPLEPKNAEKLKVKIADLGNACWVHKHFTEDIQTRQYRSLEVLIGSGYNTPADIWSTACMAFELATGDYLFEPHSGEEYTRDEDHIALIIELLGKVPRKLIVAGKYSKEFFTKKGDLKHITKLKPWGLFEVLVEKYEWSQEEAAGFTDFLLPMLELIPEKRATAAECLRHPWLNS
Sequence of panel of more than 300 wild-type and mutant kinases (313 kinase panel) (Homo sapiens, UniProt Q9H0K1) (Q9H0K1 whole entry, change not shown): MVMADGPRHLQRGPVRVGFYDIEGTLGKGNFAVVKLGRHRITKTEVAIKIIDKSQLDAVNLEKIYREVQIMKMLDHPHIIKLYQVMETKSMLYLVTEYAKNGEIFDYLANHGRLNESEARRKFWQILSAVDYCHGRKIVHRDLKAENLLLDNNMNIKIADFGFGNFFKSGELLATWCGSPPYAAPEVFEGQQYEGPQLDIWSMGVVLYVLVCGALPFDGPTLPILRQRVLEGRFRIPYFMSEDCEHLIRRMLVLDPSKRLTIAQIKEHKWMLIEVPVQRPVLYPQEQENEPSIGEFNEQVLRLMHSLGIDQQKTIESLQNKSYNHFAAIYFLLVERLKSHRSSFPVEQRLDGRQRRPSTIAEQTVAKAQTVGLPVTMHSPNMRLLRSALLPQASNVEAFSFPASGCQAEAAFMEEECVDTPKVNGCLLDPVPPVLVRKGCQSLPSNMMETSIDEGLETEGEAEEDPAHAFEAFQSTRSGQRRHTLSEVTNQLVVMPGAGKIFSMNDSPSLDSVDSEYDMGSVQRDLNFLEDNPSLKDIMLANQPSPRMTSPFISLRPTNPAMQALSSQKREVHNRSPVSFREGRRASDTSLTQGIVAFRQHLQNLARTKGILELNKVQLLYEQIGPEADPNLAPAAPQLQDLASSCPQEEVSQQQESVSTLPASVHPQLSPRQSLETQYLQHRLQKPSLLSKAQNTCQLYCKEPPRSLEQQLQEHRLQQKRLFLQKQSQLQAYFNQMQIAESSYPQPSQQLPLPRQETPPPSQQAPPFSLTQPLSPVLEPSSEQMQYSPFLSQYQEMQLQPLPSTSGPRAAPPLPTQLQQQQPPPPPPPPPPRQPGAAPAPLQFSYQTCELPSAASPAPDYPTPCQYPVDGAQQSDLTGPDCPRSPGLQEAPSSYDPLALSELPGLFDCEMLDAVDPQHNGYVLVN
Sequence of panel of more than 300 wild-type and mutant kinases (313 kinase panel) (Homo sapiens, UniProt P07949, Y791F) (P07949 29-1114 Y791F): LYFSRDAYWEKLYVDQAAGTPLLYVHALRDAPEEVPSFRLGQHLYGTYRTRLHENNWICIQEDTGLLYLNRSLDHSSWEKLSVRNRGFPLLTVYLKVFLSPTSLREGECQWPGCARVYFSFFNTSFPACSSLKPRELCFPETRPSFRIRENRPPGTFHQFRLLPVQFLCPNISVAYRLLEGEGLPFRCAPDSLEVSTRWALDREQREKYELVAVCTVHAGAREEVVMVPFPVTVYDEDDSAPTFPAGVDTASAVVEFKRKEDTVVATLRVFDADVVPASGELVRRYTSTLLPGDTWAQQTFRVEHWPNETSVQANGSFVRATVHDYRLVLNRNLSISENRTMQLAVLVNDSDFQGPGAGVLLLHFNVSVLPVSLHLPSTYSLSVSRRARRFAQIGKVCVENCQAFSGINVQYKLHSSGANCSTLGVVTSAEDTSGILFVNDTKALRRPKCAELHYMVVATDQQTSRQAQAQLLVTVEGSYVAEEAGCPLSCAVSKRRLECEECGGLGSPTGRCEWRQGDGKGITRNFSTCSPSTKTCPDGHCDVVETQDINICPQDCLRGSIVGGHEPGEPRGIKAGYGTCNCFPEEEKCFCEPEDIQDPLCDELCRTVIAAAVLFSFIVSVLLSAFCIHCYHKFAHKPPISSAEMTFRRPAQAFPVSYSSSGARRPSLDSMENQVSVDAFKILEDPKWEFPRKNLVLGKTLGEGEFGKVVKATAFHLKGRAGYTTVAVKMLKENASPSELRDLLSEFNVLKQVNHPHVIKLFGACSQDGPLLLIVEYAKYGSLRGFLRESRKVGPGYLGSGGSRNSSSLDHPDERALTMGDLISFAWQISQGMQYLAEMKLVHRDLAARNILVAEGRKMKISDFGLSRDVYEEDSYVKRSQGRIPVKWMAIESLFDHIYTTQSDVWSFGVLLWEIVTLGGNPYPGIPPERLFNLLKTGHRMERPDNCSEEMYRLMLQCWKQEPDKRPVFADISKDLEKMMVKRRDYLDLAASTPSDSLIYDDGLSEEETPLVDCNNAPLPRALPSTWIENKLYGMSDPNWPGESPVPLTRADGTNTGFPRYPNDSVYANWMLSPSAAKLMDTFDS

For `C#Cc1cccc(Nc2ncnc3cc(OCCOC)c(OCCOC)cc23)c1` [erlotinib], in test [1] (1 µM), the “%-inhibition of EPHB3” value is reported as 5%. Moreover, the “%-inhibition of SRPK1” value in test [2] (1 µM) was -1.67%. The “%-inhibition of IKKε” value in test [3] (1 µM) was 5%. Moreover, the “%-inhibition of QIK” value in test [4] (1 µM) was found to be 18%. The “%-inhibition of DCAMKL2” value in test [5] (1 µM) stood at 5%. The “%-inhibition of MST4” value in test [6] (1 µM) turned out to be 7%. Further, the “%-inhibition of LTK” value in test [7] (1 µM) is 41%. Besides, the “%-inhibition of RET(Y791F)” value in test [8] (1 µM) turned out to be 70%.
For the molecule `CO[C@H]1C[C@@H]2CC[C@@H](C)[C@@](O)(O2)C(=O)C(=O)N2CCCC[C@H]2C(=O)O[C@H]([C@H](C)C[C@@H]2CC[C@@H](OCCO)[C@H](OC)C2)CC(=O)[C@H](C)/C=C(\C)[C@@H](O)[C@@H](OC)C(=O)[C@H](C)C[C@H](C)/C=C/C=C/C=C/1C` [everolimus], the “%-inhibition of EPHB3” value in test [1] (kinase EPHB3, compound at 1 μM) was -5%. Moreover, the “%-inhibition of SRPK1” value in test [2] (kinase SRPK1, 1 μM) was found to be 1.69%. The “%-inhibition of IKKε” value in test [3] (kinase IKKε, compound at 1 μM) is -10%. Also, in test [4] (kinase QIK, 1 μM), the “%-inhibition of QIK” value is on record as -3%. Also, the “%-inhibition of DCAMKL2” value in test [5] (setting [9]) is recorded as -5.64%. Besides, the “%-inhibition of MST4” value in test [6] (kinase MST4, 1 μM) was -5.58%. Also, in test [7] (kinase LTK, compound at 1 μM), the “%-inhibition of LTK” value is reported as -12%. Moreover, in test [8] (kinase RET(Y791F), 1 μM), the “%-inhibition of RET(Y791F)” value was -3.57%.
With `O=S(=O)(c1cccc2cnccc12)N1CCCNCC1` [fasudil], in test [1] (kinase EPHB3, compound at 1 μM), the “%-inhibition of EPHB3” value is recorded as -4%. Moreover, the “%-inhibition of SRPK1” value in test [2] (kinase SRPK1, 1 μM) is listed as -5.38%. Further, in test [3] (kinase IKKε, compound at 1 μM), the “%-inhibition of IKKε” value is reported as -1.77%. For the same molecule, the “%-inhibition of QIK” value in test [4] (kinase QIK, 1 μM) is 3.26%. Further, the “%-inhibition of DCAMKL2” value in test [5] (setting [9]) is -2%. For the same molecule, in test [6] (kinase MST4, 1 μM), the “%-inhibition of MST4” value is reported as 0.181%. Besides, in test [7] (kinase LTK, compound at 1 μM), the “%-inhibition of LTK” value is recorded as -3.76%. In addition, in test [8] (kinase RET(Y791F), 1 μM), the “%-inhibition of RET(Y791F)” value is reported as 1%.
Consider `Cc1cn(-c2cc(NC(=O)c3ccc(C)c(Nc4nccc(-c5cccnc5)n4)c3)cc(C(F)(F)F)c2)cn1` [nilotinib], for which the “%-inhibition of EPHB3” value in test [1] (kinase EPHB3, compound at 1 μM) is reported as 92%. Besides, in test [2] (kinase SRPK1, 1 μM), the “%-inhibition of SRPK1” value turned out to be 3%. The “%-inhibition of IKKε” value in test [3] (kinase IKKε, compound at 1 μM) was -2.79%. In addition, the “%-inhibition of QIK” value in test [4] (kinase QIK, 1 μM) is reported as -36%. Moreover, in test [5] (setting [9]), the “%-inhibition of DCAMKL2” value is -17%. Besides, the “%-inhibition of MST4” value in test [6] (kinase MST4, 1 μM) came to 1.77%. Also, in test [7] (kinase LTK, compound at 1 μM), the “%-inhibition of LTK” value came to 7.51%. The “%-inhibition of RET(Y791F)” value in test [8] (1 µM) is 16%.
On to `Cc1ccc(Nc2nccc(N(C)c3ccc4c(C)n(C)nc4c3)n2)cc1S(N)(=O)=O` [pazopanib], for which the “%-inhibition of EPHB3” value in test [1] (kinase EPHB3, compound at 1 μM) is -0.529%. Also, in test [2] (kinase SRPK1, 1 μM), the “%-inhibition of SRPK1” value was 8%. In addition, the “%-inhibition of IKKε” value in test [3] (kinase IKKε, compound at 1 μM) was 0%. Besides, the “%-inhibition of QIK” value in test [4] (kinase QIK, 1 μM) was 17%. Besides, in test [5] (setting [9]), the “%-inhibition of DCAMKL2” value was -2.72%. Also, the “%-inhibition of MST4” value in test [6] (kinase MST4, 1 μM) was -3.23%. In addition, the “%-inhibition of LTK” value in test [7] (kinase LTK, compound at 1 μM) is on record as 27%. In test [8] (kinase RET(Y791F), 1 μM), the “%-inhibition of RET(Y791F)” value came out at 94%.
Take `CNC(=O)c1cc(Oc2ccc(NC(=O)Nc3ccc(Cl)c(C(F)(F)F)c3)c(F)c2)ccn1` [regorafenib]: in test [1] (kinase EPHB3, compound at 1 μM), the “%-inhibition of EPHB3” value was 22%. Moreover, in test [2] (kinase SRPK1, 1 μM), the “%-inhibition of SRPK1” value was found to be 27%. The “%-inhibition of IKKε” value in test [3] (kinase IKKε, compound at 1 μM) is reported as -7%. The “%-inhibition of QIK” value in test [4] (kinase QIK, 1 μM) is recorded as -5.63%. For the same molecule, the “%-inhibition of DCAMKL2” value in test [5] (setting [9]) is -6%. In addition, the “%-inhibition of MST4” value in test [6] (kinase MST4, 1 μM) is on record as 3.66%. The “%-inhibition of LTK” value in test [7] (kinase LTK, compound at 1 μM) is -1.56%. Moreover, in test [8] (1 µM), the “%-inhibition of RET(Y791F)” value was determined as 102%.
Take `CO[C@H]1C[C@@H]2CC[C@@H](C)[C@@](O)(O2)C(=O)C(=O)N2CCCC[C@H]2C(=O)O[C@H]([C@H](C)C[C@@H]2CC[C@@H](OC(=O)C(C)(CO)CO)[C@H](OC)C2)CC(=O)[C@H](C)/C=C(\C)[C@@H](O)[C@@H](OC)C(=O)[C@H](C)C[C@H](C)/C=C/C=C/C=C/1C` [temsirolimus]: the “%-inhibition of EPHB3” value in test [1] (kinase EPHB3, compound at 1 μM) is reported as -13%. Moreover, the “%-inhibition of SRPK1” value in test [2] (kinase SRPK1, 1 μM) was found to be 6%. Moreover, the “%-inhibition of IKKε” value in test [3] (kinase IKKε, compound at 1 μM) was -11%. In addition, in test [4] (kinase QIK, 1 μM), the “%-inhibition of QIK” value is -3%. In test [5] (setting [9]), the “%-inhibition of DCAMKL2” value is recorded as -4%. Further, the “%-inhibition of MST4” value in test [6] (kinase MST4, 1 μM) is recorded as -3.42%. The “%-inhibition of LTK” value in test [7] (kinase LTK, compound at 1 μM) is on record as -10%. Moreover, the “%-inhibition of RET(Y791F)” value in test [8] (kinase RET(Y791F), 1 μM) is -0.679%.
As for `CC(=O)Nc1cccc(-n2c(=O)n(C3CC3)c(=O)c3c(Nc4ccc(I)cc4F)n(C)c(=O)c(C)c32)c1` [trametinib], the “%-inhibition of EPHB3” value in test [1] (1 µM) is on record as -5.47%. The “%-inhibition of SRPK1” value in test [2] (kinase SRPK1, 1 μM) was -0.0691%. Further, in test [3] (kinase IKKε, compound at 1 μM), the “%-inhibition of IKKε” value is given as -3.63%. The “%-inhibition of QIK” value in test [4] (kinase QIK, 1 μM) is recorded as -4.66%. For the same molecule, the “%-inhibition of DCAMKL2” value in test [5] (setting [9]) was -2.4%. The “%-inhibition of MST4” value in test [6] (kinase MST4, 1 μM) is listed as -2.23%. The “%-inhibition of LTK” value in test [7] (kinase LTK, compound at 1 μM) is given as -7%. Also, the “%-inhibition of RET(Y791F)” value in test [8] (kinase RET(Y791F), 1 μM) is reported as -1.71%.
With `CCCS(=O)(=O)Nc1ccc(F)c(C(=O)c2c[nH]c3ncc(-c4ccc(Cl)cc4)cc23)c1F` [vemurafenib], in test [1] (kinase EPHB3, compound at 1 μM), the “%-inhibition of EPHB3” value worked out at 2%. For the same molecule, in test [2] (kinase SRPK1, 1 μM), the “%-inhibition of SRPK1” value is reported as 2%. For the same molecule, the “%-inhibition of IKKε” value in test [3] (kinase IKKε, compound at 1 μM) is given as -9%. Further, the “%-inhibition of QIK” value in test [4] (kinase QIK, 1 μM) is 6%. Moreover, in test [5] (setting [9]), the “%-inhibition of DCAMKL2” value is -3.52%. The “%-inhibition of MST4” value in test [6] (1 µM) was -4.62%. Moreover, in test [7] (kinase LTK, compound at 1 μM), the “%-inhibition of LTK” value was 2.6%. For the same molecule, the “%-inhibition of RET(Y791F)” value in test [8] (kinase RET(Y791F), 1 μM) came to 30%.
